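Cultured in 96-well plates, cells were exposed to test compound for 48 hours across five concentrations. Here, GI50 denotes the concentration required for 50% inhibition of growth.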 The source made the active and inactive calls. Cut-off read from the data, not from the text of the source: active = GI50 up to about 1.1 µM and inactive = higher.

Test systems include KM12; HOP-92; T47D; UACC-62; LOX IMVI; Hs-578T; HCT-15; SK-MEL-5; BT-549; NCI-H460; RXF 393; SF-295; HT-29; M14; SW-620; COLO 205; SK-OV-3; A549; K562; HOP-62.
Holding throughout (assay): NCI-60 cell line screen, 48 h

On to `CN(C)CCNC(=O)c1ccc(NCCCN(C)CCCNc2ccc3c(=O)n(CCN(C)C)c(=O)n4c5ccccc5c(=O)c2c34)c2c(O)c3ccccc3nc12`, for which the GI50 with KM12 was < 0.01 µM (active); with HOP-92, 0.114 µM (active); with T47D, 0.165 µM (active); with UACC-62, 0.0678 µM (active); in the experiment on LOX IMVI it was < 0.01 µM (active); in the experiment with Hs-578T it was 0.0285 µM (active). The GI50 is 0.0155 µM in the experiment with HCT-15; 0.0617 µM (active) in the experiment with SK-MEL-5; 0.213 µM (active) in the experiment with BT-549; < 0.01 µM (active) in the experiment with NCI-H460; 0.075 µM (active) in the experiment with RXF 393; < 0.01 µM (active) in the experiment with SF-295. The GI50 in the experiment on HT-29 was < 0.01 µM (active); in the experiment on M14, 0.164 µM (active); with SW-620 it was < 0.01 µM (active); with COLO 205, < 0.0108 µM (active); in the experiment with SK-OV-3, < 0.01 µM (active); with A549, < 0.01 µM (active). In addition, the GI50 in the experiment on K562 is 0.0324 µM (active); with HOP-62, < 0.01 µM (active).
On to `CC(C)OC(=O)c1ccc(CCc2cc(O)c(Br)cc2O)cc1`, for which the GI50 with KM12 is 6.56 µM (inactive); in the experiment on HOP-92 it was 20.9 µM (inactive); with T47D, 22 µM (inactive); in the experiment with UACC-62, 20.2 µM (inactive); in the experiment with LOX IMVI, 8.04 µM (inactive); with Hs-578T it was 14.6 µM (inactive). Further, the GI50 in the experiment on HCT-15 was 6.18 µM; with SK-MEL-5 it was 15.1 µM (inactive); in the experiment with BT-549 it was 16.4 µM (inactive); with NCI-H460, 18.6 µM (inactive); with RXF 393, 15 µM (inactive); in the experiment on SF-295, 17.3 µM (inactive). In addition, the GI50 in the experiment on HT-29 was 18.7 µM (inactive); in the experiment on M14 it was 15.6 µM (inactive); in the experiment on SW-620, 8.65 µM (inactive); with COLO 205, 15.2 µM (inactive); with SK-OV-3 it was 16.6 µM (inactive); in the experiment with A549 it was 20.3 µM (inactive). Further, the values for the GI50 in the experiment on K562 and in the experiment with HOP-62 were 8.65 µM (inactive) and 12.3 µM (inactive), respectively.
With `O=C1C(C(O)(C(F)(F)Cl)C(F)(F)Cl)CCC1C(O)(C(F)(F)Cl)C(F)(F)Cl` (stereo not given), the GI50 was 4.45 µM (inactive) in the experiment on KM12; 2.09 µM (inactive) in the experiment with HOP-92; 4.44 µM (inactive) in the experiment on T47D; 3.25 µM (inactive) in the experiment on UACC-62; 3.94 µM (inactive) with LOX IMVI; 1.9 µM (inactive) in the experiment with Hs-578T. Also, the GI50 in the experiment with HCT-15 is 3.91 µM; with SK-MEL-5 it was 5.94 µM (inactive); in the experiment with BT-549, 4.35 µM (inactive); in the experiment on NCI-H460 it was > 10 µM (inactive); in the experiment on RXF 393, 5.05 µM (inactive); in the experiment with SF-295 it was 2.58 µM (inactive). Besides, the GI50 in the experiment with HT-29 is 3.26 µM (inactive); in the experiment with M14, 7.78 µM (inactive); in the experiment with SW-620, 4.15 µM (inactive); in the experiment on COLO 205, 4.17 µM (inactive); with SK-OV-3, 5.51 µM (inactive); with A549, 9.57 µM (inactive). The GI50 was > 10 µM (inactive) with K562 and 5.57 µM (inactive) in the experiment with HOP-62.
As to `O=C(O)c1nc(-c2ccccn2)c(-c2ccccn2)nc1C(=O)O`, the GI50 in the experiment on KM12 is 2.75 µM (inactive); in the experiment with HOP-92, 9.51 µM (inactive); with T47D it was 5.19 µM (inactive); in the experiment with UACC-62 it was 2.1 µM (inactive); with LOX IMVI, 2.07 µM (inactive); in the experiment on Hs-578T, 19.1 µM (inactive). For the same compound, the GI50 in the experiment on HCT-15 is 0.384 µM; in the experiment with SK-MEL-5, 1.28 µM (inactive); with BT-549, 4.01 µM (inactive); with NCI-H460, 0.719 µM (active); in the experiment with RXF 393 it was 2.31 µM (inactive); with SF-295 it was 2.49 µM (inactive). In addition, the GI50 in the experiment on HT-29 is 2.7 µM (inactive); in the experiment with M14, 1.42 µM (inactive); with SW-620, 3.26 µM (inactive); in the experiment with COLO 205, 2.47 µM (inactive); in the experiment with SK-OV-3, 3.77 µM (inactive); with A549 it was 1.12 µM (inactive). Also, the GI50 is 3.66 µM (inactive) with K562 and 2.15 µM (inactive) in the experiment on HOP-62.
On to `Brc1cccc(/C=C/CN2CCN(CCOC(c3ccccc3)c3ccccc3)CC2)c1`, for which the GI50 with KM12 was 14.8 µM (inactive); in the experiment on HOP-92, 6 µM (inactive); in the experiment with T47D it was 3.73 µM (inactive); with UACC-62 it was 17.4 µM (inactive); with LOX IMVI, 14.5 µM (inactive); in the experiment with Hs-578T, 22.1 µM (inactive). Further, the GI50 with HCT-15 is 15.6 µM; in the experiment with SK-MEL-5, 15.1 µM (inactive); in the experiment on BT-549 it was 16.5 µM (inactive); in the experiment with NCI-H460, 13.3 µM (inactive); in the experiment with RXF 393, 11.6 µM (inactive); with SF-295, 17.6 µM (inactive). For the same compound, the GI50 was 6.22 µM (inactive) with HT-29; 13.2 µM (inactive) in the experiment on M14; 17.8 µM (inactive) in the experiment with SW-620; 14.2 µM (inactive) with COLO 205; 17.6 µM (inactive) in the experiment on SK-OV-3; 15.5 µM (inactive) in the experiment on A549. In addition, the results for the GI50 with K562 and in the experiment on HOP-62 were 7.69 µM (inactive) and 15.9 µM (inactive), respectively.
As to `COC(=O)C1=C(OC(=O)/C(=C/c2ccc(Cl)cc2Cl)c2ccc(Cl)cc2Cl)C(C(=O)OC)[C@@]2(O)[C@@H](C(=O)OC)[C@H](C)C[C@@H]1[C@@H]2C(=O)OC` (stereo not given in full), the GI50 is > 100 µM (inactive) with KM12; 22.9 µM (inactive) with HOP-92; > 100 µM (inactive) in the experiment on T47D; 92.5 µM (inactive) in the experiment on UACC-62; > 100 µM (inactive) in the experiment on LOX IMVI; > 100 µM (inactive) with Hs-578T. In addition, the GI50 in the experiment on HCT-15 is > 100 µM; with SK-MEL-5 it was > 100 µM (inactive); in the experiment with BT-549, > 100 µM (inactive); with NCI-H460, > 100 µM (inactive); in the experiment on RXF 393, 61.8 µM (inactive); with SF-295, 16.5 µM (inactive). For the same compound, the GI50 with HT-29 was > 100 µM (inactive); in the experiment with M14, > 100 µM (inactive); in the experiment with SW-620, > 100 µM (inactive); in the experiment with COLO 205, > 100 µM (inactive); with SK-OV-3 it was > 100 µM (inactive); with A549, 13.5 µM (inactive). Further, the GI50 in the experiment on K562 and in the experiment on HOP-62 was > 100 µM (inactive) throughout.
In the case of `COC(=O)c1c(C)cccc1C1CN=NC12Cc1cc(C)c(C)cc1C2=O` (stereo not given), the GI50 in the experiment on KM12 was 30.5 µM (inactive); with HOP-92, 30.4 µM (inactive); in the experiment on T47D, 40.6 µM (inactive); in the experiment with UACC-62, 69.5 µM (inactive); in the experiment with LOX IMVI, 24.2 µM (inactive); with Hs-578T, 96.4 µM (inactive). Besides, the GI50 is 30.5 µM with HCT-15; 17.1 µM (inactive) in the experiment with SK-MEL-5; 32.4 µM (inactive) with BT-549; 47.9 µM (inactive) in the experiment with NCI-H460; 68.4 µM (inactive) with RXF 393; 48.5 µM (inactive) in the experiment with SF-295. Moreover, the GI50 was 36.8 µM (inactive) with HT-29; 40.6 µM (inactive) with M14; 52.6 µM (inactive) in the experiment on SW-620; 39.4 µM (inactive) with COLO 205; 55.2 µM (inactive) in the experiment with SK-OV-3; 27.8 µM (inactive) in the experiment with A549. Besides, the GI50 with K562 was 25.4 µM (inactive); in the experiment on HOP-62, > 100 µM (inactive).
As for `C=CC1=C(C)c2cc3[nH]c(c4c5nc(cc6[nH]c(cc1n2)c(C)c6CC)C(C)=C5C(=O)[C@@H]4C(=O)OC)[C@@H](CCC(=O)O)[C@@H]3C`, the GI50 is 4.83 µM (inactive) with KM12; 1.63 µM (inactive) in the experiment with HOP-92; 5.81 µM (inactive) in the experiment with T47D; 2.16 µM (inactive) in the experiment on UACC-62; 6.22 µM (inactive) with LOX IMVI; 3.66 µM (inactive) in the experiment with Hs-578T. Further, the GI50 in the experiment on HCT-15 is 2.49 µM; in the experiment with SK-MEL-5, 1.42 µM (inactive); in the experiment on BT-549, 2.31 µM (inactive); with NCI-H460, 2.81 µM (inactive); in the experiment with RXF 393, 1.29 µM (inactive); with SF-295, 2.12 µM (inactive). For the same compound, the GI50 is 8.43 µM (inactive) in the experiment with HT-29; 3.66 µM (inactive) with M14; 2.5 µM (inactive) with SW-620; 4.28 µM (inactive) in the experiment with COLO 205; 4.06 µM (inactive) in the experiment with SK-OV-3; 3.95 µM (inactive) in the experiment with A549. The GI50 in the experiment on K562 was 1.38 µM (inactive); with HOP-62 it was 8.95 µM (inactive).
Take `COc1cc(/C=[N+](\[O-])c2ccccc2Cl)ccc1OC(=S)S`: the GI50 with KM12 was 15.1 µM (inactive); in the experiment with HOP-92 it was 10.1 µM (inactive); in the experiment on T47D, 18.8 µM (inactive); in the experiment on UACC-62 it was 21 µM (inactive); in the experiment on LOX IMVI, 36.9 µM (inactive); with Hs-578T, 61.7 µM (inactive). The GI50 with HCT-15 is 33.2 µM; in the experiment with SK-MEL-5 it was 16.6 µM (inactive); in the experiment with BT-549 it was 26.9 µM (inactive); with NCI-H460, 27.2 µM (inactive); in the experiment on RXF 393 it was 26.4 µM (inactive); in the experiment on SF-295, 30.3 µM (inactive). The GI50 was 42.5 µM (inactive) in the experiment on HT-29; 30.9 µM (inactive) in the experiment with M14; 37.1 µM (inactive) in the experiment on SW-620; 21.8 µM (inactive) in the experiment on COLO 205; 43.9 µM (inactive) with SK-OV-3; 39.8 µM (inactive) in the experiment with A549. The GI50 is 25.9 µM (inactive) in the experiment on K562 and 39.9 µM (inactive) in the experiment with HOP-62.
With `CCC[C@H](C)[C@H]1NC(=O)[C@@H](NC(=O)[C@@H](CC(C)C)N(C)C(=O)C2CCCN2C(=O)[C@H](C)O)[C@@H](C)OC(=O)[C@H](CC(C)C)N(C)C(=O)[C@@H]2CCCN2C(=O)[C@H](CC(C)C)NC(=O)[C@@H](C)C(=O)[C@H](C(C)C)OC(=O)C[C@@H]1O` (stereo not given in full), the GI50 with KM12, in the experiment on HOP-92, with T47D, with UACC-62, with LOX IMVI and with Hs-578T was < 0.0025 µM (active) in each case. In addition, the GI50 in the experiment with HCT-15 was 0.0328 µM; in the experiment on SK-MEL-5, < 0.0025 µM (active); with BT-549 it was < 0.0025 µM (active); in the experiment on NCI-H460 it was < 0.0025 µM (active); with RXF 393 it was < 0.0025 µM (active); in the experiment on SF-295, < 0.0025 µM (active). Moreover, the GI50 in the experiment with HT-29, with M14, with SW-620, with COLO 205, in the experiment with SK-OV-3 and in the experiment with A549 was < 0.0025 µM (active) each time. In addition, the GI50 in the experiment on K562 and in the experiment with HOP-62 was < 0.0025 µM (active) each time.

Values taken from ChEMBL document CHEMBL1201862, “PubChem BioAssay data set” (2004).
